{"source": "paper PMC9090415", "about": "“Discovery of small molecule inhibitors of Plasmodium falciparum apicoplast DNA polymerase” (Journal of Enzyme Inhibition and Medicinal Chemistry, 2022)", "biological_target": "P. falciparum apicoplast DNA polymerase (Pf-apPOL) (Plasmodium falciparum, UniProt Q8ILY1)", "sequence (Q8ILY1 entry or part of it)": "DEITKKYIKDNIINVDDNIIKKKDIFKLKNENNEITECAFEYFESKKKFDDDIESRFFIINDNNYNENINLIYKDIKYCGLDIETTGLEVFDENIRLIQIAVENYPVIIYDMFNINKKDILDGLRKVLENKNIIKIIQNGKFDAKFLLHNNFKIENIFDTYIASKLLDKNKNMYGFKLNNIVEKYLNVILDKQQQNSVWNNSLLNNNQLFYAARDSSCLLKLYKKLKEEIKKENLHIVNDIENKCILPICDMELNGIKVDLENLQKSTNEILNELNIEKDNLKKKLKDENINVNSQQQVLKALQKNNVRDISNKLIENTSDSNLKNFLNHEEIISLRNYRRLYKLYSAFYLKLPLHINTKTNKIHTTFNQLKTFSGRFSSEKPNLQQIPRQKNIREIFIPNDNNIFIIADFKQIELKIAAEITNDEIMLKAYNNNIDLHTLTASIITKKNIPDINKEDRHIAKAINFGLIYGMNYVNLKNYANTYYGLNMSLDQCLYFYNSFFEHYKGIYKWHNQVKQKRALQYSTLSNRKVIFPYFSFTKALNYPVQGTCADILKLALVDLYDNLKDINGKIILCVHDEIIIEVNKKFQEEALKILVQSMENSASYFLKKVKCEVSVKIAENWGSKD", "experiment": "Fluorescence-based high-throughput DNA polymerase assay (molecular beacon), primary screen and dose-response", "assay_type": "biochemical", "conditions": "for DNA Pol: 90 min, 10 µM; for % inhibition apPOL 180' 2.5 / % inhibition apPOL 180' 5 / % inhibition apPOL 180' 10 / % inhibition apPOL 180' 20 / % inhibition apPOL 180' 40 / % inhibition apPOL 180' 80: read at 180'", "procedure,_shortened": "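Single-point screening used 10 µM compound with 20 nM polymerase, 20 nM hairpin substrate and 6 µM dNTPs for 90 min at 25 °C. Confirmatory titrations (2.5–80 µM) followed fluorescence at three times, and IC50 was derived from a fit including a cooperativity term n.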"}
{"smiles": "COc1ccc(CNC(=O)Cn2nc3c(c2NC(=O)Cc2cccs2)CSC3)cc1", "note": "[Molecule 55, COc1ccc(cc1)CNC(=O)Cn1nc2c(c1NC(=O)Cc1cccs1)CSC2]", "values": [{"measurement": "DNA Pol", "setting": "'DNA Pol' of the 186 hits list (primary screen value)", "result": 42}, {"measurement": "DNA Pol", "setting": "DNA Pol (primary screen value)", "result": 42}, {"measurement": "% inhibition Apo pol 10'", "setting": "DRC-1, concentration 2.5", "result": 7.186, "unit": "%"}, {"measurement": "% inhibition Apo pol 10'", "setting": "DRC-1, concentration 5", "result": 13.7887, "unit": "%"}, {"measurement": "% inhibition Apo pol 10'", "setting": "DRC-1, concentration 10", "result": 43.1349, "unit": "%"}, {"measurement": "% inhibition Apo pol 10'", "setting": "DRC-1, concentration 20", "result": 61.7989, "unit": "%"}, {"measurement": "% inhibition Apo pol 10'", "setting": "DRC-1, concentration 40", "result": 74.6193, "unit": "%"}, {"measurement": "% inhibition Apo pol 10'", "setting": "DRC-1, concentration 80", "result": 82.9138, "unit": "%"}, {"measurement": "% inhibition Apol 90'", "setting": "DRC-1, concentration 2.5", "result": -3.211, "unit": "%"}, {"measurement": "% inhibition Apol 90'", "setting": "DRC-1, concentration 5", "result": 0.071, "unit": "%"}, {"measurement": "% inhibition Apol 90'", "setting": "DRC-1, concentration 10", "result": 21.9926, "unit": "%"}, {"measurement": "% inhibition Apol 90'", "setting": "DRC-1, concentration 20", "result": 39.7839, "unit": "%"}, {"measurement": "% inhibition Apol 90'", "setting": "DRC-1, concentration 40", "result": 59.3907, "unit": "%"}, {"measurement": "% inhibition Apol 90'", "setting": "DRC-1, concentration 80", "result": 77.3387, "unit": "%"}, {"measurement": "% inhibition apPOL 180'", "setting": "DRC-1, concentration 2.5", "result": -10.7492, "unit": "%"}, {"measurement": "% inhibition apPOL 180'", "setting": "DRC-1, concentration 5", "result": -8.12, "unit": "%"}, {"measurement": "% inhibition apPOL 180'", "setting": "DRC-1, concentration 10", "result": 5.391, "unit": "%"}, {"measurement": "% inhibition apPOL 180'", "setting": "DRC-1, concentration 20", "result": 18.5765, "unit": "%"}, {"measurement": "% inhibition apPOL 180'", "setting": "DRC-1, concentration 40", "result": 40.1483, "unit": "%"}, {"measurement": "% inhibition apPOL 180'", "setting": "DRC-1, concentration 80", "result": 66.9877, "unit": "%"}, {"measurement": "% inhibition Apo pol 5'", "setting": "DRC-2, concentration 2.5", "result": -0.186, "unit": "%"}, {"measurement": "% inhibition Apo pol 5'", "setting": "DRC-2, concentration 5", "result": -3.35, "unit": "%"}, {"measurement": "% inhibition Apo pol 5'", "setting": "DRC-2, concentration 10", "result": 16, "unit": "%"}, {"measurement": "% inhibition Apo pol 5'", "setting": "DRC-2, concentration 20", "result": 23, "unit": "%"}, {"measurement": "% inhibition Apo pol 5'", "setting": "DRC-2, concentration 40", "result": 32, "unit": "%"}, {"measurement": "% inhibition Apo pol 5'", "setting": "DRC-2, concentration 80", "result": 26, "unit": "%"}, {"measurement": "% inhibition Apol 40'", "setting": "DRC-2, concentration 2.5", "result": -0.881, "unit": "%"}, {"measurement": "% inhibition Apol 40'", "setting": "DRC-2, concentration 5", "result": -4.6, "unit": "%"}, {"measurement": "% inhibition Apol 40'", "setting": "DRC-2, concentration 10", "result": 17, "unit": "%"}, {"measurement": "% inhibition Apol 40'", "setting": "DRC-2, concentration 20", "result": 23, "unit": "%"}, {"measurement": "% inhibition Apol 40'", "setting": "DRC-2, concentration 40", "result": 47, "unit": "%"}, {"measurement": "% inhibition Apol 40'", "setting": "DRC-2, concentration 80", "result": 53, "unit": "%"}, {"measurement": "% inhibition ApPOL 90'", "setting": "DRC-2, concentration 2.5", "result": -1.87, "unit": "%"}, {"measurement": "% inhibition ApPOL 90'", "setting": "DRC-2, concentration 5", "result": -7, "unit": "%"}, {"measurement": "% inhibition ApPOL 90'", "setting": "DRC-2, concentration 10", "result": 13, "unit": "%"}, {"measurement": "% inhibition ApPOL 90'", "setting": "DRC-2, concentration 20", "result": 19, "unit": "%"}, {"measurement": "% inhibition ApPOL 90'", "setting": "DRC-2, concentration 40", "result": 45, "unit": "%"}, {"measurement": "% inhibition ApPOL 90'", "setting": "DRC-2, concentration 80", "result": 63, "unit": "%"}, {"measurement": "% inhibition apPOL 180'", "setting": "DRC-2, concentration 2.5", "result": -6.63, "unit": "%"}, {"measurement": "% inhibition apPOL 180'", "setting": "DRC-2, concentration 5", "result": -14, "unit": "%"}, {"measurement": "% inhibition apPOL 180'", "setting": "DRC-2, concentration 10", "result": 1.41, "unit": "%"}, {"measurement": "% inhibition apPOL 180'", "setting": "DRC-2, concentration 20", "result": 5, "unit": "%"}, {"measurement": "% inhibition apPOL 180'", "setting": "DRC-2, concentration 40", "result": 35, "unit": "%"}, {"measurement": "% inhibition apPOL 180'", "setting": "DRC-2, concentration 80", "result": 65, "unit": "%"}]}
{"smiles": "CC(=O)Nc1cc(C(=O)c2cccs2)nn(-c2ccc(Cl)cc2)c1=O", "note": "[KU0267905]", "values": [{"measurement": "DNA Pol", "setting": "186 hits, DNA Pol (screen value), unit not given", "result": 68}, {"measurement": "DNA Pol", "setting": "'DNA Pol' (screen value), unit not given", "result": 68}, {"measurement": "% inhibition Apo pol 10' 2.5", "setting": "DRC-1, read at 10', concentration 2.5", "result": -1.115, "unit": "%"}, {"measurement": "% inhibition Apo pol 10' 5", "setting": "DRC-1, read at 10', concentration 5", "result": 9.678, "unit": "%"}, {"measurement": "% inhibition Apo pol 10' 10", "setting": "DRC-1, read at 10', concentration 10", "result": 23.8402, "unit": "%"}, {"measurement": "% inhibition Apo pol 10' 20", "setting": "DRC-1, read at 10', concentration 20", "result": 30.1491, "unit": "%"}, {"measurement": "% inhibition Apo pol 10' 40", "setting": "DRC-1, read at 10', concentration 40", "result": 60.7427, "unit": "%"}, {"measurement": "% inhibition Apo pol 10' 80", "setting": "DRC-1, read at 10', concentration 80", "result": 68.442, "unit": "%"}, {"measurement": "% inhibition Apol 90' 2.5", "setting": "DRC-1, read at 90', concentration 2.5", "result": -1.383, "unit": "%"}, {"measurement": "% inhibition Apol 90' 5", "setting": "DRC-1, read at 90', concentration 5", "result": -2.969, "unit": "%"}, {"measurement": "% inhibition Apol 90' 10", "setting": "DRC-1, read at 90', concentration 10", "result": 7.904, "unit": "%"}, {"measurement": "% inhibition Apol 90' 20", "setting": "DRC-1, read at 90', concentration 20", "result": 14.4381, "unit": "%"}, {"measurement": "% inhibition Apol 90' 40", "setting": "DRC-1, read at 90', concentration 40", "result": 45.4354, "unit": "%"}, {"measurement": "% inhibition Apol 90' 80", "setting": "DRC-1, read at 90', concentration 80", "result": 70.7976, "unit": "%"}, {"measurement": "% inhibition apPOL 180' 2.5", "setting": "DRC-1, concentration 2.5", "result": -1.959, "unit": "%"}, {"measurement": "% inhibition apPOL 180' 5", "setting": "DRC-1, concentration 5", "result": -7.949, "unit": "%"}, {"measurement": "% inhibition apPOL 180' 10", "setting": "DRC-1, concentration 10", "result": -1.249, "unit": "%"}, {"measurement": "% inhibition apPOL 180' 20", "setting": "DRC-1, concentration 20", "result": 2.642, "unit": "%"}, {"measurement": "% inhibition apPOL 180' 40", "setting": "DRC-1, concentration 40", "result": 28.3479, "unit": "%"}, {"measurement": "% inhibition apPOL 180' 80", "setting": "DRC-1, concentration 80", "result": 62.799, "unit": "%"}, {"measurement": "% inhibition Apo pol 5'", "setting": "DRC-2, concentration 2.5", "result": 7, "unit": "%"}, {"measurement": "% inhibition Apol 40'", "setting": "DRC-2, concentration 5", "result": 7, "unit": "%"}, {"measurement": "% inhibition Apol 40'", "setting": "DRC-2, concentration 80", "result": 52, "unit": "%"}, {"measurement": "% inhibition ApPOL 90'", "setting": "DRC-2, concentration 5", "result": 4, "unit": "%"}, {"measurement": "% inhibition apPOL 180'", "setting": "DRC-2, concentration 10", "result": 4, "unit": "%"}, {"measurement": "% inhibition apPOL 180'", "setting": "DRC-2, concentration 80", "result": 52, "unit": "%"}, {"measurement": "% inhibition Apo pol 5' 2.5", "setting": "DRC-2, read at 5', concentration 2.5", "result": 7, "unit": "%"}, {"measurement": "% inhibition Apo pol 5' 5", "setting": "DRC-2, read at 5', concentration 5", "result": 11, "unit": "%"}, {"measurement": "% inhibition Apo pol 5' 10", "setting": "DRC-2, read at 5', concentration 10", "result": 21, "unit": "%"}, {"measurement": "% inhibition Apo pol 5' 20", "setting": "DRC-2, read at 5', concentration 20", "result": 29, "unit": "%"}, {"measurement": "% inhibition Apo pol 5' 40", "setting": "DRC-2, read at 5', concentration 40", "result": 40, "unit": "%"}, {"measurement": "% inhibition Apo pol 5' 80", "setting": "DRC-2, read at 5', concentration 80", "result": 36, "unit": "%"}, {"measurement": "% inhibition Apol 40' 2.5", "setting": "DRC-2, read at 40', concentration 2.5", "result": 4.64, "unit": "%"}, {"measurement": "% inhibition Apol 40' 5", "setting": "DRC-2, read at 40', concentration 5", "result": 7, "unit": "%"}, {"measurement": "% inhibition Apol 40' 10", "setting": "DRC-2, read at 40', concentration 10", "result": 15, "unit": "%"}, {"measurement": "% inhibition Apol 40' 20", "setting": "DRC-2, read at 40', concentration 20", "result": 25, "unit": "%"}, {"measurement": "% inhibition Apol 40' 40", "setting": "DRC-2, read at 40', concentration 40", "result": 44, "unit": "%"}, {"measurement": "% inhibition Apol 40' 80", "setting": "DRC-2, read at 40', concentration 80", "result": 52, "unit": "%"}, {"measurement": "% inhibition ApPOL 90' 2.5", "setting": "DRC-2, read at 90', concentration 2.5", "result": 3.39, "unit": "%"}, {"measurement": "% inhibition ApPOL 90' 5", "setting": "DRC-2, read at 90', concentration 5", "result": 4, "unit": "%"}, {"measurement": "% inhibition ApPOL 90' 10", "setting": "DRC-2, read at 90', concentration 10", "result": 12, "unit": "%"}, {"measurement": "% inhibition ApPOL 90' 20", "setting": "DRC-2, read at 90', concentration 20", "result": 19, "unit": "%"}, {"measurement": "% inhibition ApPOL 90' 40", "setting": "DRC-2, read at 90', concentration 40", "result": 42, "unit": "%"}, {"measurement": "% inhibition ApPOL 90' 80", "setting": "DRC-2, read at 90', concentration 80", "result": 55, "unit": "%"}, {"measurement": "% inhibition apPOL 180' 2.5", "setting": "DRC-2, concentration 2.5", "result": -1.41, "unit": "%"}, {"measurement": "% inhibition apPOL 180' 5", "setting": "DRC-2, concentration 5", "result": 0.65, "unit": "%"}, {"measurement": "% inhibition apPOL 180' 10", "setting": "DRC-2, concentration 10", "result": 4, "unit": "%"}, {"measurement": "% inhibition apPOL 180' 20", "setting": "DRC-2, concentration 20", "result": 9, "unit": "%"}, {"measurement": "% inhibition apPOL 180' 40", "setting": "DRC-2, concentration 40", "result": 31, "unit": "%"}, {"measurement": "% inhibition apPOL 180' 80", "setting": "DRC-2, concentration 80", "result": 52, "unit": "%"}]}
